This test has as its target T1, hTSHR (Homo sapiens, UniProt P16473).
T1 construct: expressed in transfected cells
Nature of the test: hTSHR TR-FRET cAMP Assay (inhibition of M22-stimulated cAMP production). It counts as cell-based. In outline: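 Readout was a cAMP HTRF ratio of 655/620 nm after lysis, scaled between the EC80 M22 signal (0% inhibition) and no-agonist vehicle (100%). Frozen induced Expi293F-hTSHR cells saw test compounds (0.5% DMSO) for 15 min at 37 °C before 30 min of M22 stimulation at EC80.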

[1] abbreviates: Expi293F Inducible cells stably expressing hTSHR, cAMP HTRF, stimulated with EC80 of anti-TSHR antibody M22, 15 min compound preincubation, 30 min at 37° C., read-out: Activity (IC50 bins).

Read-outs that look alike come from different tables or passages of the source.

T1 sequence (P16473 21-764): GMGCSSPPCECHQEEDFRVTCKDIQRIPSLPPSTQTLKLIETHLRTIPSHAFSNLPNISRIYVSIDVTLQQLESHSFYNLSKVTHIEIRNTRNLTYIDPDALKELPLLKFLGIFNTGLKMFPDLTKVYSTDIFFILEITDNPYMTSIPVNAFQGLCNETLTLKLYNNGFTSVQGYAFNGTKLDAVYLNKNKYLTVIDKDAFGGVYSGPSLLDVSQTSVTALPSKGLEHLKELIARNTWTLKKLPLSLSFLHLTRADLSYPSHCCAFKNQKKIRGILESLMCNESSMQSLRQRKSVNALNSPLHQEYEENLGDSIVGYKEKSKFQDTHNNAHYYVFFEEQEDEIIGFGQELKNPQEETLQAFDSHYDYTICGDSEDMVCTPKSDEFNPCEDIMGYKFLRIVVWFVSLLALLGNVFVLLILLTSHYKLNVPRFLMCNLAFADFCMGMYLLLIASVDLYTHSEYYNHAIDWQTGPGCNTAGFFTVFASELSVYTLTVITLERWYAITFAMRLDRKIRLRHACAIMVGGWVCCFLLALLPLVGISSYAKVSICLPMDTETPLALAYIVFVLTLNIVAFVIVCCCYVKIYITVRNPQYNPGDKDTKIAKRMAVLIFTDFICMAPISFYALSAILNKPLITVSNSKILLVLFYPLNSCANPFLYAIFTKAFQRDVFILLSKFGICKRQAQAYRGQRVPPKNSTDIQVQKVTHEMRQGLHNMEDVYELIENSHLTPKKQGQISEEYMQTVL

`C[C@H]1Oc2cc(NC(=O)NC(C)(C)C)ccc2N(Cc2cccc(C(F)F)c2)C1=O` [Example 158, (R)-1-(tert-butyl)-3-(4-(3-(difluoro-methyl)benzyl)-2-methyl-3-oxo-3,4-dihydro-2H-benzo [b][1,4]oxazin-7-yl)urea]: the IC50 under setting [1] was less than 0.1 µM.

In the case of `C[C@H]1Oc2cc(NC(=O)NC(C)(C)C)ccc2N([C@@H](C)c2ccccc2Cl)C1=O` [Example 189, 1-(tert-butyl)-3-((R)-4-((S)-1-(2-chlorophenyl)ethyl)-2-methyl-3-oxo-3,4-dihydro-2H-benzo[b][1,4]oxazin-7-yl)urea], the IC50 under setting [1] is less than 0.1 µM. For the compound `COC[C@H]1Oc2cc(NC(=O)NC(C)(C)C)ccc2N(Cc2ccccc2)C1=O` [Example 289, (R)-1-(4-benzyl-2-(methoxymethyl)-3-oxo-3,4-dihydro-2H-benzo[b][1,4]oxazin-7-yl)-3-(tert-butyl)urea], the IC50 under setting [1] is more than 1 µM. For `CC(C)(C)NC(=O)Nc1ccc2c(c1)C(C)(C)CC(=O)N2Cc1ccccc1` [Example 10, 1-(1-benzyl-4,4-dimethyl-2-oxo-1,2,3,4-tetrahydroquinolin-6-yl)-3-(tert-butyl)urea], the IC50 under setting [1] is more than 1 µM. `C[C@H]1Oc2c(cc(C#N)c(NC(=O)NC(C)(C)C)c2F)N(Cc2cccc(C(F)F)c2)C1=O` [Example 370, (R)-1-(tert-butyl)-3-(6-cyano-4-(3-(difluoromethyl)benzyl)-8-fluoro-2-methyl-3-oxo-3,4-dihydro-2H-benzo[b][1,4]oxazin-7-yl)urea]: the IC50 under setting [1] was less than 0.1 µM.

On to `CC(C)(C)NC(=O)Nc1ccc2c(c1)CCC(=O)N2Cc1cccc(C(F)(F)F)c1` [Example 23, 1-(tert-butyl)-3-(2-oxo-1-(3-(trifluoromethyl)benzyl)-1,2,3,4-tetrahydroquinolin-6-yl)urea], for which, under setting [1], the IC50 was less than 0.1 µM. In the case of `CC(C)(C)NC(=O)Nc1ccc2c(c1)oc(=O)n2Cc1ccccc1` [Example 38, 1-(3-benzyl-2-oxo-2,3-dihydrobenzo[d]oxazol-6-yl)-3-(tert-butyl)urea], under setting [1], the half-maximal inhibitory concentration (IC50) was more than 1 µM. With `C[C@H]1Oc2cc(NC(=O)NC(C)(C)CCO)ccc2N(Cc2ccccc2)C1=O` [Example 236, (R)-1-(4-benzyl-2-methyl-3-oxo-3,4-dihydro-2H-benzo[b][1,4]oxazin-7-yl)-3-(4-hydroxy-2-methylbutan-2-yl)urea], the IC50 under setting [1] lay within 0.1 to 1 µM. For `C[C@@H](c1cccc(-c2ccccc2)c1)n1c(=O)cnc2cc(NC(=O)NC(C)(C)C)ccc21` [Example 112, (S)-1-(1-(1-([1,1′-biphenyl]-3-yl)ethyl)-2-oxo-1,2-dihydroquinoxalin-6-yl)-3-(tert-butyl)urea], the IC50 lay in the range of 0.1 to 1 µM.

With `COCC1(NC(=O)Nc2ccc3c(c2)ncc(=O)n3[C@@H](C)c2cccc(OC(F)(F)F)c2)CCC1` [Example 215, (S)-1-(1-(methoxymethyl)cyclobutyl)-3-(2-oxo-1-(1-(3-(tri-fluoromethoxy)phenyl)ethyl)-1,2-dihydroquinoxalin-6-yl)urea], the IC50 under setting [1] was in the range of 0.1 to 1 µM. As for `Cc1ccc(C#N)c(CN2C(=O)CCc3cc(NC(=O)NC(C)(C)C)ccc32)c1` [Example 266, 3-tert-butyl-1-{1-[(2-cyano-5-methylphenyl)methyl]-2-oxo-3,4-dihydroquinolin-6-yl}urea], the IC50 under setting [1] is more than 1 µM. Regarding `Cc1cccc(CN2C(=O)CCc3cc(NC(=O)NC(C)(C)C)ccc32)c1` [Example 21, 1-(tert-butyl)-3-(1-(3-methylbenzyl)-2-oxo-1,2,3,4-tetrahydroquinolin-6-yl)urea], the IC50 under setting [1] is less than 0.1 µM. Take `CC(C)Oc1cccc(CN2C(=O)COc3cc(NC(=O)NC(C)(C)C)ccc32)c1` [Example 75, 1-(tert-butyl)-3-(4-(3-isopropoxybenzyl)-3-oxo-3,4-dihydro-2H-benzo[b][1,4]oxa-zin-7-yl)urea]: the IC50 under setting [1] fell in the range of 0.1 to 1 µM.

For `C[C@@H](c1cc(Cl)cc(Cl)c1)n1c(=O)cnc2cc(NC(=O)NC(C)(C)C)ccc21` [Example 101, (S)-1-(tert-butyl)-3-(1-(1-(3,5-dichlorophenyl)ethyl)-2-oxo-1,2-dihydroquinoxalin-6-yl)urea], under setting [1], the IC50 lay within 0.1 to 1 µM. Regarding `C[C@@H](c1cccc(OC(F)(F)F)c1)n1c(=O)cnc2cc(NC(=O)NC3(C(F)(F)F)CCCC3)ccc21` [Example 217], under setting [1], the IC50 was in the range of 0.1 to 1 µM. In the case of `CC(C)(C)NC(=O)Nc1ccc2c(n1)CCC(=O)N2Cc1cccc(C(F)(F)F)c1` [Example 274, 1-(tert-butyl)-3-(6-oxo-5-(3-(trifluoromethyl)benzyl)-5,6,7,8-tetrahydro-1,5-naphthyridin-2-yl)urea], the IC50 under setting [1] lay within 0.1 to 1 µM. As for `C[C@@H](c1cccc(C(F)F)c1)n1c(=O)cnc2cc(NC(=O)NC(C)(C)C)ccc21` [Example 122, (S)-1-(tert-butyl)-3-(1-(1-(3-(difluoro-methyl)phenyl)ethyl)-2-oxo-1,2-dihydroquinoxalin-6-yl)urea], under setting [1], the IC50 was in the range of 0.1 to 1 µM.

Turning to `CC(C)(C)NC(=O)Nc1ccc2c(c1)OCC(=O)N2Cc1cccc(C(F)(F)F)c1` [Example 50, 1-(tert-butyl)-3-(3-oxo-4-(3-(trifluoromethyl)benzyl)-3,4-dihydro-2H-benzo[b][1,4]oxazin-7-yl)urea], the IC50 under setting [1] was less than 0.1 µM. Regarding `C[C@@H](c1cccc(OC(F)(F)F)c1)n1c(=O)cnc2cc(NC(=O)CCc3cccc(C(F)(F)F)c3)ccc21` [Example 202, (S)-N-(2-oxo-1-(1-(3-(trifluoromethoxy)phenyl)ethyl)-1,2-dihydroquinoxalin-6-yl)-3-(3-(trifluoromethyl)phenyl) propanamide], under setting [1], the 50% inhibitory concentration (IC50) was less than 0.1 µM. For `COCC1(NC(=O)Nc2ccc3c(c2)O[C@H](C)C(=O)N3Cc2cccc(C(F)(F)F)n2)CCC1` [Example 233, (R)-1-(1-(methoxymethyl)cyclobutyl)-3-(2-methyl-3-oxo-4-((6-(trifluoromethyl)pyridin-2-yl)methyl)-3,4-dihydro-2H-benzo[b][1,4]oxazin-7-yl)urea], the IC50 under setting [1] was in the range of 0.1 to 1 µM. Take `CC(c1cccc(C(F)(F)F)c1)N1C(=O)N(C)Cc2cc(NC(=O)NC(C)(C)C)ccc21` (stereo not shown) [Example 271, 1-(tert-butyl)-3-(3-methyl-2-oxo-1-(1-(3-(trifluoromethyl)phenyl)ethyl)-1,2,3,4-tetrahydroquinazolin-6-yl)urea]: under setting [1], the IC50 was more than 1 µM. Regarding `C[C@@H](c1cccc(OC(F)(F)F)c1)n1c(=O)cnc2cc(NC(=O)NC(C)(C)C(F)(F)F)ccc21` [Example 208, (S)-1-(2-oxo-1-(1-(3-(trifluoromethoxy)phenyl)ethyl)-1,2-dihydroquinoxalin-6-yl)-3-(1,1,1-trifluoro-2-methylpropan-2-yl)urea], the IC50 under setting [1] was 0.1 to 1 µM.

Regarding `CC(C)(C)NC(=O)Nc1ccc2c(c1)ncc(=O)n2Cc1cccc2c1CCCO2` [Example 97, 1-(tert-butyl)-3-(1-(chroman-5-ylmethyl)-2-oxo-1,2-di-hydro-quinoxalin-6-yl)urea], the IC50 under setting [1] was in the range of 0.1 to 1 µM. Same read-out and setting: under `CC(C)(C)NC(=O)Nc1ccc2c(c1)OC(C)(C)C(=O)N2Cc1ccccc1` [Example 292, 1-(4-benzyl-2,2-dimethyl-3-oxo-3,4-dihydro-2H-benzo[b][1,4]oxazin-7-yl)-3-(tert-butyl)urea] stands more than 1 µM. For `C[C@@H](c1cccc(C2CCC2)c1)n1c(=O)cnc2cc(NC(=O)NC(C)(C)C)ccc21` [Example 135, (S)-1-(tert-butyl)-3-(1-(1-(3-cyclo-butylphenyl)ethyl)-2-oxo-1,2-dihydroquinoxalin-6-yl)urea], under setting [1], the IC50 was 0.1 to 1 µM. For the compound `CC(c1cccc(CCC2COC2)c1)n1c(=O)cnc2cc(NC(=O)NC(C)(C)C)ccc21` (stereo not shown) [Example 248, 1-(tert-butyl)-3-(1-(1-(3-(2-(oxetan-3-yl)ethyl)phenyl)ethyl)-2-oxo-1,2-dihydro-quinoxalin-6-yl)urea], the IC50 under setting [1] was more than 1 µM.

As to `C[C@H]1Oc2cc(NC(=O)NC(C)(C)C)ccc2N([C@@H](C)c2cc(Cl)ccc2Cl)C1=O` [Example 190, 1-(tert-butyl)-3-((R)-4-((S)-1-(2,5-dichlorophenyl)ethyl)-2-methyl-3-oxo-3,4-dihydro-2H-benzo[b][1,4]oxazin-7-yl)urea], under setting [1], the IC50 lay within 0.1 to 1 µM. Regarding `CC(C)(O)CNC(=O)Nc1ccc2c(c1)ncc(=O)n2Cc1cccc(OC(F)(F)F)c1` [Example 239, 1-(2-hydroxy-2-methylpropyl)-3-(2-oxo-1-(3-(trifluoromethoxy)benzyl)-1,2-dihydroquinoxalin-6-yl)urea], the half-maximal inhibitory concentration (IC50) under setting [1] is more than 1 µM. For `C[C@@H](c1ccc(F)c(OC(F)(F)F)c1)n1c(=O)cnc2cc(NC(=O)NC(C)(C)C)ccc21` [Example 105, (S)-1-(tert-buty1)-3-(1-(1-(4-fluoro-3-(trifluoromethoxy)phe-nyl)ethyl)-2-oxo-1,2-dihydroquinoxalin-6-yl)urea], the IC50 under setting [1] was less than 0.1 µM.

Regarding `CC(C)(C)NC(=O)Nc1c(F)cc2c(c1F)CCC(=O)N2Cc1ccccc1` [Example 345, 1-(1-benzyl-5,7-difluoro-2-oxo-1,2,3,4-tetrahydroquinolin-6-yl)-3-(tert-butyl) urea], under setting [1], the IC50 fell in the range of 0.1 to 1 µM. `C[C@@H](c1cccc(CC(F)(F)F)c1)n1c(=O)cnc2cc(NC(=O)NC(C)(C)C)ccc21` [Example 102, (S)-1-(tert-butyl)-3-(2-oxo-1-(1-(3-(2,2,2-trifluoroethyl)phe-nyl)ethyl)-1,2-dihydroquinoxalin-6-yl)urea]: the IC50 under setting [1] lay in the range of 0.1 to 1 µM. For the compound `CC(C)(CCO)NC(=O)Nc1ccc2c(c1)CCC(=O)N2Cc1ccccc1` [Example 16, 1-(1-benzyl-2-oxo-1,2,3,4-tetrahydroquinolin-6-yl)-3-(4-hydroxy-2-methylbutan-2-yl)urea], the IC50 under setting [1] was in the range of 0.1 to 1 µM. On the same count and under the same terms, under `C[C@H]1Oc2cc(NC(=O)NC(C)(C)C)ccc2N([C@@H](C)c2ccnc(C(F)(F)F)n2)C1=O` (single isomer, unassigned) [Example 310] stands 0.1 to 1 µM; under `Cc1ccc(C#N)c(CN2C(=O)[C@H](C)Oc3cc(NC(=O)NC(C)(C)C)ccc32)c1` [Example 88, (S)-1-(tert-butyl)-3-(4-(2-cyano-5-methylbenzyl)-2-methyl-3-oxo-3,4-dihydro-2H-benzo[b][1,4]oxazin-7-yl)urea], more than 1 µM.

Source of the values: patent publication US20260365628A1, “SUBSTITUTED 3,4-DIHYDROQUINOLINONE INHIBITORS OF TSHR” (Septerna, Inc., priority 2022, published 2026).
